In patent publication US4304778A, “4-Aminoquinazoline derivatives having fungicidal, anti-insect and acaricidal properties” (Sankyo Company Limited, priority 1978, dated 1981):

How the values were obtained:
[1] = system: third instar larvae of the tobacco cutworm; experiment: Repellent action against the third instar larvae of the tobacco cutworm; format: in vivo; set-up: key: -: no ingestion; ±: very little ingestion; +: some ingestion; ++: considerable ingestion; details: cabbage leaves dipped in 500 ppm, 72 hours
From the text: (§1) In the following Examples, wettable powders prepared according to the procedures of Example 4 were used, each powder containing 50% by weight of the active compound of this invention.
Cabbage leaves were dipped for 30 seconds in an aqueous suspension containing 500 ppm of one of the active compounds shown in Table 6. After air-drying, each leaf was placed into a plastic receptacle having a diameter of 8 cm and the third instar larvae (10 per receptacle) of the tobacco cutworm were released onto the leaves. After 72 hours, the extent of ingestion of the leaves was measured, using two receptacles for each test compound. The results are shown in Table 6, using the following notation (which is also employed, with the same meaning, in following Table 9): […]

Phytophthora infestans = format: in vivo; details: tomato late blight; 500 ppm; after 5 days; average per leaf
guppies = experiment: Toxicity to guppies; format: in vivo; details: LC50 after 48 hours classified
Method: In this example the toxicity of the compounds of the invention towards guppies was estimated and is compared with that of corresponding compounds as disclosed and claimed in our co-pending U.S. Application No. 910,117 filed May 30, 1978. The LC50 was determined after 48 hours and the toxicity to guppies was classified into the rankings (i), (ii) and (iii) according to the following classification scheme: […]

cockroach larvae = details: 24 hours; 25° C.
Sphaerotheca fuliginea = experiment: Effect on powdery mildew in cucumbers; format: in vivo; details: cucumber powdery mildew; 500 ppm; 10 days
Method: as §1
Cucumber seedlings (variety Sagamihanshiro), planted two per 12 cm diameter pot, were used as host plants at the stage when the first leaf was fully grown and open. Each test group of three pots was treated with one of the active compounds shown in Table 5 by spraying an aqueous suspension containing 500 ppm of the active compound onto the plants at the rate of 20 ml per 3 pots. After air-drying the plants, the host plants were inoculated with the microorganism Sphaerotheca fuliginea by brushing already infected cucumber leaves with a small brush and letting the microorganism fall onto the host plants. The inoculated plants were kept in a greenhouse at 24°-26° C. for 10 days. At the end of this time, the percentage diseased area was measured.

[2] = system: final instar larvae of the diamondback moth (Plutella xylostella); experiment: Repellent and emergence-inhibition effect on the final instar larvae of diamondback moths; format: in vivo; set-up: key to Extent of ingestion: -: no ingestion; ±: very little ingestion; +: some ingestion; ++: considerable ingestion; details: 72 hours; for pest or weed control at 500 ppm: Plutella xylostella, read-out: Emergence-inhibition rate (%); for Extent of ingestion: radish leaves dipped in 500 ppm
From the text: as §1
Leaves of the Japanese radish (Raphanus sativus) were dipped for 30 seconds into a liquid containing 500 ppm of one of the compounds shown in Table 9. After air-drying the leaves, each leaf was placed into a plastic icecream cup (diameter 8 cm) and 15 final instar larvae of the diamondback moth (Plutella xylostella) were placed into each cup. Each test was conducted in duplicate and the results were averaged.

Piricularia oryzae = format: in vivo; details: rice blast; 500 ppm spray; mean, upper two leaves
[3] = system: cotton aphid (Aphis gossyppi); experiment: Effect on the cotton aphid on cucumbers; format: in vivo; details: 600 ppm; 5 sprayings Sept. 25 to Oct. 30; examined Nov. 9; untreated control 8.7
From the text: as §1
Cucumbers (variety "Tokiwa Hikari No. 3, Type P") were transplanted into a plastic greenhouse on September 12. Using a shoulder sprayer, a liquid containing 600 ppm of one of the compounds shown in Table 11 was sprayed on the surface and reverse side of the leaves on Sept. 25, Oct. 9, 16, 23 and 30. On Nov. 9, the effect on the cotton aphid (Aphis gossyppi) was investigated, sampling 25-30 leaves at random from each test area and calculating the number of colonies on each leaf; there were generally 50-100 aphids per colony. The results are shown as the number of colonies per leaf in Table 11, which also gives the results for a test area where no compound of the invention was applied.

[4] = system: Colletotrichum lagenarium; experiment: Effect on anthracnose in cucumbers; format: in vivo; details: cucumber anthracnose; 500 ppm; seven days; cotyledon and first leaf
Method: as §1
Groups of cucumber plants (variety Sagamihanshiro) were planted, two per pot, in a series of Wagner pots (diameter 12 cm) and were used as host plants when the first leaf was fully grown and open. Each test group of three pots was treated with one of the active compounds shown in Table 4 by spraying an aqueous suspension containing 500 ppm of the active compound onto the plants at the rate of 30 ml per 3 pots. After air-drying the plants, a spore suspension of the pathogenic microorganism Colletotrichum lagenarium was sprayed onto the plants and the plants were kept in a wet room for 24 hours at 20°-22° C. and 100% relative humidity. The pots were then placed in a greenhouse at 26° C. and, seven days after the spore suspension had been sprayed on, the percentage diseased area of the cotyledon and the first leaf was calculated.

| SMILES | Extent of ingestion [1] | Diseased area (%) (Phytophthora infestans) | Toxicity ranking (guppies) | Mortality rate (%), 0.5mg test cpd/10 cockroaches/bottle (cockroach larvae) | Mortality rate (%), 1mg test cpd/10 cockroaches/bottle (cockroach larvae) | Diseased area (%) (Sphaerotheca fuliginea) | pest or weed control at 500 ppm [2] | Extent of ingestion [2] | No. of disease spots per leaf (Piricularia oryzae) | No. of colonies per leaf [3] | Diseased area (%) [4] |
| --- | --- | --- | --- | --- | --- | --- | --- | --- | --- | --- | --- |
| CC(C)c1ccccc1OCCN(C)c1ncnc2ccccc12 [compound 15, 4-{N-[2-(2-isopropylphenoxy)ethyl]-N-methylamino}quinazoline] | ± to + | 0% | ii (all fish dead at 10 ppm but alive at 0.5 ppm) | 80% | 100% | 0% | 60% | ± | 3.0 spots per leaf | – | – |
| CCCCCCCCc1ccc(OCCN(C)c2ncnc3ccccc23)c(C)c1 [compound 58, 4-{N-methyl-N-[2-(2-methyl-4-octylphenoxy)ethyl]amino}quinazoline] | ± to + | 10% | – | 90% | 100% | – | 85% | ± | – | 0.5 colonies per leaf | – |
| Cc1ccc(C(C)C)cc1OCCN(C)c1ncnc2ccccc12 [Compound No. 21, 4-{N-[2-(5-isopropyl-2-methylphenoxy)ethyl]-N-methylamino}quinazoline] | + | 12% | – | 90% | 100% | 0% | 90% | ± | – | 1.0 colonies per leaf | 0% |
| Cc1ccc(OCCN(C)c2ncnc3ccccc23)c(C)c1 [compound 17, 4-{N-[2-(2,4-dimethylphenoxy)ethyl]-N-methylamino}-quinazoline] | + | 9% | ii (all fish dead at 10 ppm but alive at 0.5 ppm) | 90% | 100% | 0% | 50% | ± to + | 2.4 spots per leaf | – | – |
| Cc1cc(Cl)ccc1OCCN(C)c1ncnc2ccccc12 [compound 22, 4-{N-[2-(4-chloro-2-methylphenoxy)ethyl]-N-methylamino}quinazoline] | ± to + | 15% | – | 80% | 100% | 0% | 80% | ± | – | 1.1 colonies per leaf | 0% |
